According to US10800791B2, “Triazole ACC inhibitors and uses thereof” (Gilead Apollo, LLC, priority 2015, dated 2020):
Converted amounts (≈) assume the structure as drawn. Like-named read-outs stand apart in the source and are kept apart here.

Tests used:
human (hACC2) = human (hACC2) (Homo sapiens, UniProt O00763); assay: In vitro ACC inhibition assay (ADP-Glo), hACC2; format: biochemical; details: Table 2b, additional results, 5 nM ACC2, 20 μM ATP, 20 μM acetyl-CoA
Method: The detailed procedure is as follows. […] 10 μL ADP glo reagent was added. […] 20 μL kinase detection reagent was added.

C. albicans = assay: Antifungal Activity Assay (broth microtiter MIC), C. albicans; format: cell-based, Candida albicans; details: Candida albicans, ATCC90028, 48 h
Summary of the method: (§1)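 Colonies from 24 h Sabouraud dextrose agar plates (35° C) are suspended in RPMI 1640+MOPS and diluted to give 2.5×10^3 CFU/mL in the wells. Plates are set up per CLSI M27-A3. Visual MIC is recorded at 48 h.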

C. krusei = assay: Antifungal Activity Assay (broth microtiter MIC), C. krusei; format: cell-based, Candida krusei; details: Pichia kudriavzevii, ATCC6258, 48 h
Summary of the method: as §1

C. parapsilosis = assay: Antifungal Activity Assay (broth microtiter MIC), C. parapsilosis; format: cell-based, Candida parapsilosis; details: Lodderomyces parapsilosis, ATCC22019, 48 h
Summary of the method: as §1

Botrtyis cinerea (Bc) = assay: Growth inhibition assay of fungal pathogens, Bc; format: cell-based; details: 48 h, growth inhibition at 48 hours vs 2% DMSO control
Summary of the method: (§2)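 Spores from sub-cultured plates were diluted in 17% V8 liquid medium and exposed to compound from DMSO stocks at final concentrations of 50, 10 and 2 ppm or 2, 0.4 and 0.08 ppm. OD600 and visual ratings at 48 h were compared with the 2% DMSO control to give percent growth inhibition.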

[1] = test system: Collectotrichum graminicola (Cg); assay: Growth inhibition assay of fungal pathogens, Cg; format: cell-based; details: 48 h, growth inhibition at 48 hours vs 2% DMSO control
Summary of the method: as §2

Diplodia maydis (Dm) = assay: Growth inhibition assay of fungal pathogens, Dm; format: cell-based; details: Stenocarpella maydis, 48 h, growth inhibition at 48 hours vs 2% DMSO control
Summary of the method: as §2

[2] = test system: Fusarium moniliforme (Fm); assay: Growth inhibition assay of fungal pathogens, Fm; format: cell-based; details: Fusarium verticillioides, 48 h, read-out: Concentration at 90% Inhibition Fm
Summary of the method: as §2

[3] = test system: Fusarium virguliforme (Fv); assay: Growth inhibition assay of fungal pathogens, Fv; format: cell-based; details: 48 h
Summary of the method: as §2

[4] = test system: Phytophthora capsici (Pc); assay: Growth inhibition assay of fungal pathogens, Pc; format: cell-based; details: 48 h
Summary of the method: as §2

Rhizoctonia solani (Rs) = assay: Growth inhibition assay of fungal pathogens, Rs; format: cell-based; details: 48 h
Septoria tritici (St) = assay: Growth inhibition assay of fungal pathogens, St; format: cell-based; details: Zymoseptoria tritici, 48 h, growth inhibition at 48 hours vs 2% DMSO control
Summary of the method: as §2

fungal (fACC2) = fungal (fACC2) (UniProt Q00955); details: read-out: fACC2 (in vitro ACC2 Inhibition Assay, IC50); Table 2b, additional results; ADP-Glo, 5 nM ACC2, 20 μM ATP, 20 μM acetyl-CoA
Chain of fungal (fACC2) (Q00955 whole entry): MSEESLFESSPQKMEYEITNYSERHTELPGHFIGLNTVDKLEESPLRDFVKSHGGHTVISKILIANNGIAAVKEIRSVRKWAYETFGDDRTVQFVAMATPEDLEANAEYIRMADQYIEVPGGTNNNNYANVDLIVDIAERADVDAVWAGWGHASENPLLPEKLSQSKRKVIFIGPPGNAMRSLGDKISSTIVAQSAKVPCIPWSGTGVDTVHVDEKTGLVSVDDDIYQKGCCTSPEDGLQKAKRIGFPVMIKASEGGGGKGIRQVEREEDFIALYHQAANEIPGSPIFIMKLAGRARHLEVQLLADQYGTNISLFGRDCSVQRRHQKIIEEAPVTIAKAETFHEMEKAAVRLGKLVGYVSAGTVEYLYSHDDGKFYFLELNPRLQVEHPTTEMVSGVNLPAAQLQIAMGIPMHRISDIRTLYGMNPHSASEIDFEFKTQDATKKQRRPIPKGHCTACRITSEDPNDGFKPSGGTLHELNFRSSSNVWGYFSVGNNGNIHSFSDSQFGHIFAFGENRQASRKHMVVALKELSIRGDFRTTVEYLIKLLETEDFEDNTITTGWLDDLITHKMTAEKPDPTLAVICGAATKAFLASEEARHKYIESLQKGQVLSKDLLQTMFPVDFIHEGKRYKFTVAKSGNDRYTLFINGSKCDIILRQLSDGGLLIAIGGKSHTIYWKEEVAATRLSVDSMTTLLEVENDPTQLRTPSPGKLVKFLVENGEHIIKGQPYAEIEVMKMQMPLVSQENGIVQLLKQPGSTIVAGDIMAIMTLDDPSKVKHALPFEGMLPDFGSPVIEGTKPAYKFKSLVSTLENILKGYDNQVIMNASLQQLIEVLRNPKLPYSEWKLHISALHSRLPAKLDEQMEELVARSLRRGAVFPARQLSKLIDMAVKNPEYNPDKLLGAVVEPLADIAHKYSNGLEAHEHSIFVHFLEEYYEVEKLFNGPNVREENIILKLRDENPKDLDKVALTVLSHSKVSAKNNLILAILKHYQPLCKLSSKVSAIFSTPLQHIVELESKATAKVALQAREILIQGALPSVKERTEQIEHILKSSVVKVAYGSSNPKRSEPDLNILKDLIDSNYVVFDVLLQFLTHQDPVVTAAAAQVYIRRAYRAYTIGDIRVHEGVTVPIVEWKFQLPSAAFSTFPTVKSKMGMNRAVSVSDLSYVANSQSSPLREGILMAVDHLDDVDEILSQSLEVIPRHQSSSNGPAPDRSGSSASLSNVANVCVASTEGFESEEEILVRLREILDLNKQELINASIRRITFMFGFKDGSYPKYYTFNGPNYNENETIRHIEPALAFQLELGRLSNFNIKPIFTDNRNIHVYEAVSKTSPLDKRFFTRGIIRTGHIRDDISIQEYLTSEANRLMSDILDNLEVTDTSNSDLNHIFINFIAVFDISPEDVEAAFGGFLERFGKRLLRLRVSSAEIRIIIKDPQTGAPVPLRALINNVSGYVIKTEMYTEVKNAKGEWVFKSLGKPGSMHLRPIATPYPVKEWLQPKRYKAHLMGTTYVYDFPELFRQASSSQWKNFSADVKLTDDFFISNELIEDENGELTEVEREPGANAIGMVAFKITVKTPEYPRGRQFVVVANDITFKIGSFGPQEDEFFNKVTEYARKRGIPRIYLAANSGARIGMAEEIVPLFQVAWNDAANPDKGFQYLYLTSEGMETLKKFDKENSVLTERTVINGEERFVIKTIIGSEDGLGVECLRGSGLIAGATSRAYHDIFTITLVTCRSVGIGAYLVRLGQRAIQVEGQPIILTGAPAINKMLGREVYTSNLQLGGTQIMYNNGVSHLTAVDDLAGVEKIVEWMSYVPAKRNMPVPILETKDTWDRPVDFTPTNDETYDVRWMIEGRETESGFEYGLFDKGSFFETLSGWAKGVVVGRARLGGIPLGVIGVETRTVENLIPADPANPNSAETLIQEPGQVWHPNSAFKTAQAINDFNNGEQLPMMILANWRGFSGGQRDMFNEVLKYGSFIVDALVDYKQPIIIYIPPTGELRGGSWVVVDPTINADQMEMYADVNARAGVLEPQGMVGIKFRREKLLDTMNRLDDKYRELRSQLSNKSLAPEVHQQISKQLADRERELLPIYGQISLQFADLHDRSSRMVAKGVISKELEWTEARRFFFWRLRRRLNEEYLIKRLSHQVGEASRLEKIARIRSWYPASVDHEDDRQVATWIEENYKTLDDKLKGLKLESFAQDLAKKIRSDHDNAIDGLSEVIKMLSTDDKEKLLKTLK

[5] = Table 3b (additional results), ATCC 90028, 3 replicates, MIC recorded at 48 h, read-out: MIC, C. albicans ATCC 90028
[6] = Table 3b (additional results), ATCC 6258, 3 replicates, MIC recorded at 48 h, read-out: MIC, C. krusei ATCC 6258
[7] = Table 3b (additional results), ATCC 22019, 3 replicates, MIC recorded at 48 h, read-out: MIC, C. parapsilosis ATCC 22019
[8] = Botrtyis cinerea, read-out: Concentration at 90% Inhibition Bc
[9] = Collectotrichum graminicola, read-out: Concentration at 90% Inhibition Cg
[10] = Diplodia maydis, read-out: Concentration at 90% Inhibition Dm
[11] = Fusarium moniliforme, growth inhibition at 48 hours vs 2% DMSO control
[12] = growth inhibition at 48 hours vs 2% DMSO control, read-out: Concentration at 90% Inhibition Fv
[13] = growth inhibition at 48 hours vs 2% DMSO control, read-out: Concentration at 90% Inhibition Pc
[14] = mycelial plugs, growth inhibition at 48 hours vs 2% DMSO control, read-out: Concentration at 90% Inhibition Rs
[15] = Septoria tritici, read-out: Concentration at 90% Inhibition St
[16] = read-out: MIC, C. albicans ATCC 90028, Table 3b (additional results), 3 replicates, MIC recorded at 48 h
[17] = read-out: MIC, C. krusei ATCC 6258, Table 3b (additional results), 3 replicates, MIC recorded at 48 h
[18] = read-out: MIC, C. parapsilosis ATCC 22019, Table 3b (additional results), 3 replicates, MIC recorded at 48 h
[19] = read-out: Concentration at 90% Inhibition Bc, Botrtyis cinerea
[20] = read-out: Concentration at 90% Inhibition Cg, Collectotrichum graminicola
[21] = read-out: Concentration at 90% Inhibition Dm, Diplodia maydis
[22] = read-out: Concentration at 90% Inhibition Fv, Fusarium virguliforme, growth inhibition at 48 hours vs 2% DMSO control
[23] = read-out: Concentration at 90% Inhibition Pc, Phytophthora capsici, growth inhibition at 48 hours vs 2% DMSO control
[24] = read-out: Concentration at 90% Inhibition Rs, Rhizoctonia solani, mycelial plugs, growth inhibition at 48 hours vs 2% DMSO control
[25] = read-out: Concentration at 90% Inhibition St, Septoria tritici

Chain of human (hACC2) (O00763 whole entry): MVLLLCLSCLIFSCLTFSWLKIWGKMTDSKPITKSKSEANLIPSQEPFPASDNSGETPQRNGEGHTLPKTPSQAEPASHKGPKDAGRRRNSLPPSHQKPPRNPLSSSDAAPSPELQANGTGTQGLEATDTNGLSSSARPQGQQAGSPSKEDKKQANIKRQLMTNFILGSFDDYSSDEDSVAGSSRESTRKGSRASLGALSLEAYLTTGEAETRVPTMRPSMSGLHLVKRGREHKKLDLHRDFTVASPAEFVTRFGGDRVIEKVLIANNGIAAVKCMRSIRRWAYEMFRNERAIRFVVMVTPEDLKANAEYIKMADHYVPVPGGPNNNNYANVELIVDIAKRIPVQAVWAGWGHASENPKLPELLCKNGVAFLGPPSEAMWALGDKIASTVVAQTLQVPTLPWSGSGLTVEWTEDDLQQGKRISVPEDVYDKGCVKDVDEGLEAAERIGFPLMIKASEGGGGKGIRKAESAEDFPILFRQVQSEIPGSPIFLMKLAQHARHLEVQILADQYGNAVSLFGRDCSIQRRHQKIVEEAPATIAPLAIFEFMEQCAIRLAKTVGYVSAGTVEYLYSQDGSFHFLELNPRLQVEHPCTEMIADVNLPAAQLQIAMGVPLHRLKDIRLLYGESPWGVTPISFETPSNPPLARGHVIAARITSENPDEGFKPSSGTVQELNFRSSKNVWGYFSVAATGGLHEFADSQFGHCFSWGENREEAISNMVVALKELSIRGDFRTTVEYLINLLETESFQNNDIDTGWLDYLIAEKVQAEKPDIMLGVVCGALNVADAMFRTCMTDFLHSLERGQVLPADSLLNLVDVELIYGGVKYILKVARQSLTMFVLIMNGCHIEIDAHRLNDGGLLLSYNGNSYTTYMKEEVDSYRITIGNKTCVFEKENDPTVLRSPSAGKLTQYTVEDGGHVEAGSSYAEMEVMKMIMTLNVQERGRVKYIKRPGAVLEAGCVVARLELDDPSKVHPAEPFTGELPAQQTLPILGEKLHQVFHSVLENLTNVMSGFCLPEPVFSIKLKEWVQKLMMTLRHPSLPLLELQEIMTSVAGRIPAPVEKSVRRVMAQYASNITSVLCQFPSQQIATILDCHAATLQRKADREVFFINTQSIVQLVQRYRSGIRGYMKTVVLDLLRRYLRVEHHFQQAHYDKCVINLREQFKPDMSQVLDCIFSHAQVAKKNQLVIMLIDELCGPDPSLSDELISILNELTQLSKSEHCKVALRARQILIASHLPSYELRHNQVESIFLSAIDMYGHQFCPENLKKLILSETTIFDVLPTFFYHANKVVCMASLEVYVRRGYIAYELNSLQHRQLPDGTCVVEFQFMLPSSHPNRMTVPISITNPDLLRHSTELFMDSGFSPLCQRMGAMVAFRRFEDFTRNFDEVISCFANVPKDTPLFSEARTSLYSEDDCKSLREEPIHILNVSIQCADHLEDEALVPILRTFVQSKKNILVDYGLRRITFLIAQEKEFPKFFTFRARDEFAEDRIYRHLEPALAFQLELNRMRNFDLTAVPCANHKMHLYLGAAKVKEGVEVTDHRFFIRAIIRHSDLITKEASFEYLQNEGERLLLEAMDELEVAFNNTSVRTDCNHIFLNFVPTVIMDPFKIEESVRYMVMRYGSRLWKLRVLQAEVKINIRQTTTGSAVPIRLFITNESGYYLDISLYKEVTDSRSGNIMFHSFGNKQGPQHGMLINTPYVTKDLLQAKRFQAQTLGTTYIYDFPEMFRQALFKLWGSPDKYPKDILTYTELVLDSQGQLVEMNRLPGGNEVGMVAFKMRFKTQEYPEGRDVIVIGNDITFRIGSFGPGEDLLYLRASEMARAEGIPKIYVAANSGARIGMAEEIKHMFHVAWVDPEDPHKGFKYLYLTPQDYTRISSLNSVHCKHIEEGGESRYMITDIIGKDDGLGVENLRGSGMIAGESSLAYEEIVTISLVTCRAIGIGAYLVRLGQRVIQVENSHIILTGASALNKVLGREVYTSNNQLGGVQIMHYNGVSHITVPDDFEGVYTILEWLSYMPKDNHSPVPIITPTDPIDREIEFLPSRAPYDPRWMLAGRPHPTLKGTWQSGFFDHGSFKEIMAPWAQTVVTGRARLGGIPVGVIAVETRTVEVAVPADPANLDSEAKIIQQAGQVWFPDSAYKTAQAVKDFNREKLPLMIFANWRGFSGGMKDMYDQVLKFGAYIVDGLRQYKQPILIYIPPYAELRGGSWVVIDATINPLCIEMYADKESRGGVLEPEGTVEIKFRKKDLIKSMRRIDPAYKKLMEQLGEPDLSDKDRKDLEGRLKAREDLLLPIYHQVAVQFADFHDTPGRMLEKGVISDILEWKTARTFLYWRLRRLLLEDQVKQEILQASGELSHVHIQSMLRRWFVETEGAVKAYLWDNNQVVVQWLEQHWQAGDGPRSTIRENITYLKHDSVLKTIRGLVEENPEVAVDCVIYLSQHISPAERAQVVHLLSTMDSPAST

SMILES | IC50 (human (hACC2)) [nM] | MIC (C. albicans; [5]) [µg/mL] | MIC (C. krusei; [6]) [µg/mL] | MIC (C. parapsilosis; [7]) [µg/mL] | IC90 (Botrtyis cinerea (Bc); [8]) [µg/mL] | IC90 [1, 9] [µg/mL] | IC90 (Diplodia maydis (Dm); [10]) [µg/mL] | IC90 [2, 11] [µg/mL] | IC90 [3, 12] [µg/mL] | IC90 [4, 13] [µg/mL] | IC90 (Rhizoctonia solani (Rs); [14]) [µg/mL] | IC90 (Septoria tritici (St); [15]) [µg/mL] | IC50 (fungal (fACC2)) [nM] | other results
COc1ccc(Br)cc1[C@H](Cn1c(=O)n(C(C)(C)C(=O)NC(C)C)c(=O)c2c(C)c(-n3nccn3)sc21)OCC(C)(C)C#N [Compound I-224] | 5 to 10 | 0.25 to 1 (≈ 0.364 to 1.46 µM) | 0.25 to 1 (≈ 0.364 to 1.46 µM) | 1.01 to 2 (≈ 1.47 to 2.91 µM) | 0.4 (≈ 0.583 µM) | 2 (≈ 2.91 µM) | 2 (≈ 2.91 µM) | 0.08 (≈ 0.117 µM) | 0.4 (≈ 0.583 µM) | > 50 | > 50 | > 50 | 1 to 5 | 
COc1ccc(F)cc1[C@@](O)(CO)Cn1c(=O)n(C(C)(C)C(=O)NC(C)C)c(=O)c2c(C)c(-n3nccn3)sc21 [Compound I-225] | 5 to 10 |  |  |  |  |  |  |  |  |  |  |  | 1 to 5 | MIC (C. albicans; [16]): 0.25 to 1 µg/mL (≈ 0.435 to 1.74 µM); MIC (C. krusei; [17]): 0.25 to 1 µg/mL (≈ 0.435 to 1.74 µM); MIC (C. parapsilosis; [18]): 1.01 to 2 µg/mL (≈ 1.76 to 3.48 µM); IC90 (Botrtyis cinerea (Bc); [19]): 0.4 µg/mL (≈ 0.696 µM); IC90 [1, 20]: 0.08 µg/mL (≈ 0.139 µM); IC90 (Diplodia maydis (Dm); [21]): 0.4 µg/mL (≈ 0.696 µM); IC90 [2]: 0.08 µg/mL (≈ 0.139 µM); IC90 [3, 22]: 0.4 µg/mL (≈ 0.696 µM); IC90 [4, 23]: 2 µg/mL (≈ 3.48 µM); IC90 (Rhizoctonia solani (Rs); [24]): 0.08 µg/mL (≈ 0.139 µM); IC90 (Septoria tritici (St); [25]): > 50 µg/mL
Cc1c(-n2nccn2)sc2c1c(=O)n(C(C)(C)C(=O)NC(C)C)c(=O)n2C[C@H](OCCO)c1cc(F)ccc1O [Compound I-226] | 10 to 40 | 2.01 to 4 (≈ 3.5 to 6.96 µM) | 1.01 to 2 (≈ 1.76 to 3.48 µM) | 2.01 to 4 (≈ 3.5 to 6.96 µM) | 10 (≈ 17.4 µM) | 10 (≈ 17.4 µM) | > 50 | 2 (≈ 3.48 µM) | 10 (≈ 17.4 µM) | > 50 | 2 (≈ 3.48 µM) | > 50 | 0.3 to 1 | 
COc1ccc(Cl)cc1[C@H](Cn1c(=O)n(C(C)(C)C(=O)NC(C)C)c(=O)c2c(C)c(-n3nccn3)sc21)OCC(C)(C)C#N [Compound I-227] | 10 to 40 | 0.25 to 1 (≈ 0.389 to 1.56 µM) | 0.25 to 1 (≈ 0.389 to 1.56 µM) | 1.01 to 2 (≈ 1.57 to 3.11 µM) | 2 (≈ 3.11 µM) | 2 (≈ 3.11 µM) | 2 (≈ 3.11 µM) | 2 (≈ 3.11 µM) | 2 (≈ 3.11 µM) | > 50 | 2 (≈ 3.11 µM) | > 50 | 1 to 5 | 
COc1ccc(F)cc1[C@](C)(Cn1c(=O)n(C(C)(C)C(=O)NC(C)C)c(=O)c2c(C)c(-n3nccn3)sc21)OCCC#N [Compound I-229] | > 40 | 0.25 to 1 (≈ 0.409 to 1.63 µM) | 0.25 to 1 (≈ 0.409 to 1.63 µM) | 1.01 to 2 (≈ 1.65 to 3.27 µM) | 0.4 (≈ 0.654 µM) | 2 (≈ 3.27 µM) | > 50 | 0.08 (≈ 0.131 µM) | 0.4 (≈ 0.654 µM) | > 50 | 2 (≈ 3.27 µM) | > 50 | 1 to 5 | 
COc1ccc(F)cc1[C@@](C)(Cn1c(=O)n(C(C)(C)C(=O)NC(C)C)c(=O)c2c(C)c(-n3nccn3)sc21)OCCC#N [Compound I-230] | 10 to 40 | 0.25 to 1 (≈ 0.409 to 1.63 µM) | 0.25 to 1 (≈ 0.409 to 1.63 µM) | 1.01 to 2 (≈ 1.65 to 3.27 µM) | 0.4 (≈ 0.654 µM) | 0.08 (≈ 0.131 µM) | 0.4 (≈ 0.654 µM) | 0.08 (≈ 0.131 µM) | 0.4 (≈ 0.654 µM) | 2 (≈ 3.27 µM) | 0.08 (≈ 0.131 µM) | > 50 | 0.3 to 1 | 
COc1ccc(F)cc1[C@@](O)(CCO)Cn1c(=O)n(C(C)(C)C(=O)NC(C)C)c(=O)c2c(C)c(-n3nccn3)sc21 [Compound I-231] | 10 to 40 |  |  |  |  |  |  |  |  |  |  |  | 1 to 5 | MIC (C. albicans; [16]): 0.06 to 0.249 µg/mL (≈ 0.102 to 0.423 µM); MIC (C. krusei; [17]): 0.06 to 0.249 µg/mL (≈ 0.102 to 0.423 µM); MIC (C. parapsilosis; [18]): 1.01 to 2 µg/mL (≈ 1.72 to 3.4 µM); IC90 (Botrtyis cinerea (Bc); [19]): 2 µg/mL (≈ 3.4 µM); IC90 [1, 20]: 2 µg/mL (≈ 3.4 µM); IC90 (Diplodia maydis (Dm); [21]): 2 µg/mL (≈ 3.4 µM); IC90 [2]: 0.4 µg/mL (≈ 0.68 µM); IC90 [3, 22]: 2 µg/mL (≈ 3.4 µM); IC90 [4, 23]: 10 µg/mL (≈ 17 µM); IC90 (Rhizoctonia solani (Rs); [24]): 0.08 µg/mL (≈ 0.136 µM); IC90 (Septoria tritici (St); [25]): > 50 µg/mL
